Experimental data taken from the supplement of paper PMC10307832.

Tests used:
Assay in all cases: relative viability (nuclei count vs DMSO), 5 days (fraction); higher = more cells survive
[1] = test system: NCI-H23
Summary of the method: (§1)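 Lung cancer cell lines in 1536-well plates were dosed by pin tool the day after seeding, either with one drug alone or with a fixed anchor-drug dose plus five library-drug doses (not always all listed) in √10 steps. After 5 days, cells were fixed and their nuclei stained in one step (final 0.05% Triton X-100, 1% formaldehyde, 1 ug/ml Hoechst), then counted on 4× images. Relative viability is the nuclei count in treated wells divided by that in vehicle wells. Values are medians of duplicate plates.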

[2] = test system: NCI-H322M
Summary of the method: as §1

[3] = test system: EBC-1
Summary of the method: as §1

[4] = test system: Calu-6
Summary of the method: as §1

[5] = test system: NCI-H596
Summary of the method: as §1

[6] = test system: NCI-H1355
Summary of the method: as §1

[7] = test system: NCI-H1993
Summary of the method: as §1

[8] = test system: NCI-H1299
Summary of the method: as §1

[9] = test system: IA-LM
Summary of the method: as §1

[10] = test system: UMC-11
Summary of the method: as §1

[11] = test system: NCI-H1703
Summary of the method: as §1

[12] = test system: LCLC-97TM1
Summary of the method: as §1

Structure (SMILES): CC(=O)O[C@@]12CO[C@@H]1C[C@H](O)[C@@]1(C)C(=O)[C@H](O)C3=C(C)[C@@H](OC(=O)[C@H](O)[C@@H](NC(=O)OC(C)(C)C)c4ccccc4)C[C@@](O)([C@@H](OC(=O)c4ccccc4)[C@H]21)C3(C)C [Docetaxel] + CC(C)C[C@H](NC(=O)[C@H](Cc1ccccc1)NC(=O)c1cnccn1)B(O)O [Bortezomib] (partner 0.002 µM)
- relative viability ([1]; first compound 0.0002 µM): 1.08
- relative viability ([1]; first compound 0.000632 µM): 0.574
- relative viability ([1]; first compound 0.002 µM): 0.399
- relative viability ([1]; first compound 0.006325 µM): 0.169
- relative viability ([1]; first compound 0.02 µM): 0.104
- relative viability ([2]; first compound 0.0002 µM): 1.11
- relative viability ([2]; first compound 0.000632 µM): 1.22
- relative viability ([2]; first compound 0.002 µM): 1.05
- relative viability ([2]; first compound 0.006325 µM): 0.602
- relative viability ([2]; first compound 0.02 µM): 0.469
- relative viability ([3]; first compound 0.0002 µM): 0.479
- relative viability ([3]; first compound 0.000632 µM): 0.385
- relative viability ([3]; first compound 0.002 µM): 0.237
- relative viability ([3]; first compound 0.006325 µM): 0.27
- relative viability ([3]; first compound 0.02 µM): 0.174
- relative viability ([4]; first compound 0.0002 µM): 0.95
- relative viability ([4]; first compound 0.000632 µM): 0.828
- relative viability ([4]; first compound 0.002 µM): 0.327
- relative viability ([4]; first compound 0.006325 µM): 0.182
- relative viability ([4]; first compound 0.02 µM): 0.106
- relative viability ([5]; first compound 0.0002 µM): 0.81
- relative viability ([5]; first compound 0.000632 µM): 1.15
- relative viability ([5]; first compound 0.002 µM): 0.812
- relative viability ([5]; first compound 0.006325 µM): 0.723
- relative viability ([5]; first compound 0.02 µM): 0.423
- relative viability ([6]; first compound 0.0002 µM): 1.2
- relative viability ([6]; first compound 0.000632 µM): 1.14
- relative viability ([6]; first compound 0.002 µM): 0.673
- relative viability ([6]; first compound 0.006325 µM): 0.302
- relative viability ([6]; first compound 0.02 µM): 0.224
- relative viability ([7]; first compound 0.0002 µM): 0.961
- relative viability ([7]; first compound 0.000632 µM): 1.06
- relative viability ([7]; first compound 0.002 µM): 0.798
- relative viability ([7]; first compound 0.006325 µM): 0.608
- relative viability ([7]; first compound 0.02 µM): 0.399
- relative viability ([8]; first compound 0.0002 µM): 1.05
- relative viability ([8]; first compound 0.000632 µM): 0.997
- relative viability ([8]; first compound 0.002 µM): 0.948
- relative viability ([8]; first compound 0.006325 µM): 0.586
- relative viability ([8]; first compound 0.02 µM): 0.503
- relative viability ([9]; first compound 0.0002 µM): 0.471
- relative viability ([9]; first compound 0.000632 µM): 0.192
- relative viability ([9]; first compound 0.002 µM): 0.11
- relative viability ([9]; first compound 0.006325 µM): 0.0654
- relative viability ([9]; first compound 0.02 µM): 0.0642
- relative viability ([10]; first compound 0.0002 µM): 0.747
- relative viability ([10]; first compound 0.000632 µM): 0.763
- relative viability ([10]; first compound 0.002 µM): 0.162
- relative viability ([10]; first compound 0.006325 µM): 0.197
- relative viability ([10]; first compound 0.02 µM): 0.128
- relative viability ([11]; first compound 0.0002 µM): 0.256
- relative viability ([11]; first compound 0.000632 µM): 0.249
- relative viability ([11]; first compound 0.006325 µM): 0.149
- relative viability ([11]; first compound 0.02 µM): 0.0944
- relative viability ([12]; first compound 0.0002 µM): 0.624
- relative viability ([12]; first compound 0.000632 µM): 0.125
- relative viability ([12]; first compound 0.002 µM): 0.106
- relative viability ([12]; first compound 0.006325 µM): 0.083
- relative viability ([12]; first compound 0.02 µM): 0.051

Structure (SMILES): Nc1ccn([C@@H]2O[C@H](CO)[C@@H](O)[C@@H]2O)c(=O)n1 [Cytarabine] + CC(C)C[C@H](NC(=O)[C@H](Cc1ccccc1)NC(=O)c1cnccn1)B(O)O [Bortezomib] (partner 0.002 µM)
- relative viability ([1]; first compound 0.005 µM): 0.743
- relative viability ([1]; first compound 0.01581 µM): 0.656
- relative viability ([1]; first compound 0.05 µM): 0.559
- relative viability ([1]; first compound 0.1581 µM): 0.24
- relative viability ([1]; first compound 0.5 µM): 0.214
- relative viability ([2]; first compound 0.005 µM): 0.718
- relative viability ([2]; first compound 0.01581 µM): 1.01
- relative viability ([2]; first compound 0.05 µM): 0.717
- relative viability ([2]; first compound 0.1581 µM): 0.472
- relative viability ([2]; first compound 0.5 µM): 0.404
- relative viability ([3]; first compound 0.005 µM): 0.543
- relative viability ([3]; first compound 0.01581 µM): 0.49
- relative viability ([3]; first compound 0.05 µM): 0.515
- relative viability ([3]; first compound 0.1581 µM): 0.341
- relative viability ([3]; first compound 0.5 µM): 0.326
- relative viability ([4]; first compound 0.005 µM): 0.864
- relative viability ([4]; first compound 0.01581 µM): 0.794
- relative viability ([4]; first compound 0.05 µM): 0.749
- relative viability ([4]; first compound 0.1581 µM): 0.609
- relative viability ([4]; first compound 0.5 µM): 0.356
- relative viability ([5]; first compound 0.005 µM): 0.788
- relative viability ([5]; first compound 0.01581 µM): 0.853
- relative viability ([5]; first compound 0.05 µM): 0.904
- relative viability ([5]; first compound 0.1581 µM): 0.62
- relative viability ([5]; first compound 0.5 µM): 0.704
- relative viability ([6]; first compound 0.005 µM): 1.02
- relative viability ([6]; first compound 0.01581 µM): 1.18
- relative viability ([6]; first compound 0.05 µM): 0.927
- relative viability ([6]; first compound 0.1581 µM): 0.644
- relative viability ([6]; first compound 0.5 µM): 0.389
- relative viability ([7]; first compound 0.005 µM): 1.1
- relative viability ([7]; first compound 0.01581 µM): 0.964
- relative viability ([7]; first compound 0.05 µM): 1
- relative viability ([7]; first compound 0.1581 µM): 0.768
- relative viability ([7]; first compound 0.5 µM): 0.62
- relative viability ([8]; first compound 0.005 µM): 1.01
- relative viability ([8]; first compound 0.01581 µM): 1.09
- relative viability ([8]; first compound 0.05 µM): 1.05
- relative viability ([8]; first compound 0.1581 µM): 1.03
- relative viability ([8]; first compound 0.5 µM): 1
- relative viability ([9]; first compound 0.005 µM): 0.739
- relative viability ([9]; first compound 0.01581 µM): 0.663
- relative viability ([9]; first compound 0.05 µM): 0.648
- relative viability ([9]; first compound 0.1581 µM): 0.411
- relative viability ([9]; first compound 0.5 µM): 0.165
- relative viability ([10]; first compound 0.005 µM): 0.339
- relative viability ([10]; first compound 0.01581 µM): 0.381
- relative viability ([10]; first compound 0.05 µM): 0.341
- relative viability ([10]; first compound 0.1581 µM): 0.155
- relative viability ([10]; first compound 0.5 µM): 0.155
- relative viability ([11]; first compound 0.005 µM): 0.321
- relative viability ([11]; first compound 0.01581 µM): 0.172
- relative viability ([11]; first compound 0.05 µM): 0.145
- relative viability ([11]; first compound 0.1581 µM): 0.117
- relative viability ([11]; first compound 0.5 µM): 0.134
- relative viability ([12]; first compound 0.005 µM): 0.277
- relative viability ([12]; first compound 0.01581 µM): 0.349
- relative viability ([12]; first compound 0.05 µM): 0.132
- relative viability ([12]; first compound 0.1581 µM): 0.084
- relative viability ([12]; first compound 0.5 µM): 0.0888
